According to patent publication US6602510B1, “HLA class I A2 tumor associated antigen peptides and vaccine compositions” (priority 2000, dated 2003):

Assays:
PBMC from normal donors = assay type: cell-based, human
[1] = tested on: patients with recurrent or residual cervical carcinoma; conditions: cited from earlier work

Row | Substance | antigen concentration at which the 10,000 cpm proliferation level was reached (PBMC from normal donors) | responding patients ([1]; 95% interval 10-65%) | safety ([1]; co-emulsified with HPV-derived CTL epitopes)
1 | QYIKANSKFIGITE [Epitope 553.01] | about 10,000 ng/ml |  | 
2 | aKXVAAWTLKAAa-NH2 |  | 33% | favorable safety profile
